Measured values as given in patent US20070185045A1, “Inhibitors of 2-oxoglutarate dioxygenase as gamma globin inducers” (priority 2006, published 2007).

Assays:
[1] = test system: CD34+ bone marrow progenitor cells; details: for increase in F-cells over untreated cultures, combination with HU: in combination with 5 μM HU, Phase II only (FIG. 3B)
γ-globin = γ-globin mRNA expression by quantitative PCR in K562 cells; assay type: cell-based, human; details: 3 days, HPI-6 plus 100 μM HU (FIG. 1A)
Experimental: For studies utilizing the human erythroleukemia K562 cell line (ATCC), cells were grown and cultured in complete medium (RPM1 1640, 10% fetal calf serum (FCS), 100 U/ml penicillin and 0.1 mg/ml streptomycin) in a humidified incubator at 37° C., 95% air, 5% CO2. HPIs were titrated into duplicate cultures at dosage levels spanning more than 100-fold differences in concentration, and incubated from 24 to 96 hours prior to harvesting and quantitation of F-cells and HbF levels by flow cytometry.
Each PCR run included a standard curve and water blank. In addition, a melt curve was run after completion of each PCR run to assess the specificity of the amplification, γ-globin gene expression was normalized relative to the expression level of 18S ribosomal RNA for each sample.

Row | Structure (SMILES) | HbF expression together with HU ([1]; 20 μM HPI-1 with HU (FIGS. 5A, 5B)) | HbF expression compared to vehicle control (percent F-cells or MFI for HbF) ([1]; 20 μM, triplicate (FIGS. 5A, 5B)) | increase in F-cells over untreated cultures, combination with HU [1] | γ-globin expression with added hydroxyurea (γ-globin)
1 | O=C(O)CNC(=O)c1nc(Cl)c2ccccc2c1O [HPI-1, N-((1-chloro-4-hydroxy-isoquinoline-3-carbonyl)-amino)-acetic acid] | additive to the effects of HU | increased HbF expression | 58% | 
2 | O=C(O)CNC(=O)c1ncc2cc(Br)ccc2c1O [HPI-2, [(7-Bromo-4-hydroxy-isoquinoline-3-carbonyl)-amino]-acetic acid] |  |  | 29% | 
3 | O=C(O)CNC(=O)c1ncc2cc(Sc3ccccc3)ccc2c1O [HPI-6, [(4-Hydroxy-7-phenylsulfanyl-isoquinoline-3-carbonyl)-amino]-acetic acid] |  |  |  | augmented
